Patent publication US10857155B2, “Compounds targeting proteins, compositions, methods, and uses thereof” (BioTheryX, Inc., priority 2017, dated 2020)

Columns and labels:
Format in all cases: cell-based
TNF-α = test: TNF-alpha in LPS-induced PBMCs / CD14+ monocytes, Meso Scale assay
Protocol: (§1) FIG. 4 represents the activity against TNF-alpha in CD14, monocytes, plated in 96 well plates and pretreated with Compounds 1, 2, or 3, or pomalidomide, for 1 h and then induced with 100 ng/mL LPS for 18-24 h. Cytokines were measured according to MesoScale protocol. The negative control wells were treated with DMSO. Cells were treated with compound (at the indicated concentrations) or 10 μM pomalidomide. Compound activity was measured as a percentage of LPS-induced activity.
(§2) Either frozen primary blood mononuclear cells (PBMCs) or frozen CD14+ mobilized peripheral blood monocytes were purchased from AllCells (PB003F, Normal Peripheral Blood MNC (Alameda, Calif.)). Cells were quick thawed, washed 1-time with RPMI-1640 (10% FBS/1% Pen-Strep) and plated in 96 well plates at 200,000 cells per well. Cells were pretreated with DMSO only, pomalidomide or the indicated compounds for 1 h and then induced with 100 ng/mL lipopolysaccharide (LPS) for 18-24 h. The supernatant was analyzed for IL-1 beta, IL-6, and TNF-alpha, using Meso Scale assay according to manufacturer's protocol. The negative control wells were treated with DMSO.
(§3) Compound activity is measured as fold difference from the DMSO control. Compounds 1, 2, and 3 each reduced expression of IL-1-b in LPS-stimulated PBMCs by over 80% at 1 uM, relative to a just under 80% reduction with pomalidomide at 10 μM (FIG. 2).

Molm-13 cells = test: Cell viability assay (CellTiter-Glo), Molm-13 cells; conditions: for IC50: approximate; for viability at 10 µM: MOLM-13, 10 μM
Protocol: FIG. 5 represents antiproliferative activity in Molm-13 cells. The cells were incubated with Compound 1, 2, or 3 (at the indicated concentration), DMSO, or pomalidomide. Compound activity was measured based on the signal from remaining viable cells.
(§4) Molm-13 cells were cultivated in RPMI-1640 (10% FBS/1% pen-strep) and were plated in white walled 96-well plates at 20,000 cells/well. H1048 cells were cultured in DMEM:F12 media supplemented with 5% fetal bovine serum, insulin, transferrin, sodium selenite, hydrocortisone, estradiol, penicillin and streptomycin, and were plated in white walled 96-well plates at 20,000 cells/well.
(§5) Cells were treated with compound at the indicated concentration or DMSO (control) and the cultures were incubated for 3 days at 37° C. and 5% CO2. Following the incubation period, 100 μL of CellTiterGlow (CTG) reagent (CellTiter-Glo® Luminescent Cell Viability Assay, Promega (Madison, Wis.)) was added to each well. Following a 10 min incubation with shaking, luminescence was measured using a Victor Wallac Luminometer.

GSPT1 = molecular target: T1, GSPT1 (Homo sapiens, UniProt P15170); test: Western blot analysis of GSPT1 protein levels in Jurkat cells; conditions: DMSO = 100.00; for GSPT1 protein level (% of DMSO control) at 0.1 µM: 100 nM compound; for GSPT1 protein level (% of DMSO control) at 1 µM: 1 uM compound
T1 construct: Whole cell extract was prepared with RIPA buffer according to manufacturer's protocol; endogenous in cells; host or cells: Jurkat cells
T1 sequence (P15170 whole entry): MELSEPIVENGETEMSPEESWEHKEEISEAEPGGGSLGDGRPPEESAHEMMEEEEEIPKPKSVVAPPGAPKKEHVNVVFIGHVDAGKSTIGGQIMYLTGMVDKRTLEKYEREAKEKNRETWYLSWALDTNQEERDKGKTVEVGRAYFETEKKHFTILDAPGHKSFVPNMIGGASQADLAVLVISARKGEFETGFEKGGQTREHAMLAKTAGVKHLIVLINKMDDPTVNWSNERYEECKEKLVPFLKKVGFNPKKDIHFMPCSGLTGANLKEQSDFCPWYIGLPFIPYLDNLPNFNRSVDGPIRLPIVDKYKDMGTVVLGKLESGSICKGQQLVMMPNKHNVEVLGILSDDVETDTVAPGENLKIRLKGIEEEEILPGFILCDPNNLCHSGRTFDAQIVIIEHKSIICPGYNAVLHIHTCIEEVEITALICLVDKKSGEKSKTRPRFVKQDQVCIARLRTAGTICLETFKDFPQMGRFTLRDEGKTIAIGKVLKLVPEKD
Protocol: FIG. 1 represents the activity against CK1α, ikaros, and GPST1 in Jurkat cells, plated in 96 well plates. Cells were pretreated with compounds for 4 h and then lysed and protein levels measure via Western blots. The negative control wells were treated with DMSO. Cells were treated with the indicated compound at the indicated concentration. Compound activity is measured as a decrease in GSPT1 protein levels.
Western Blot Protocol: Cell lines were grown in RPMI 1640 supplemented with streptomycin, penicillin and 10% fetal bovine serum.
Jurkat cells were cultured at approximately 10^6 cells per mL, DMSO or the indicated compound was added to the cells and allowed to incubate for 6-8 h. Whole cell extract was prepared with RIPA buffer according to manufacturer's protocol (Pierce (Dallas, Tex.)). Briefly, ˜2×10^6 cells were washed once in PBS, the cell pellet was resuspended in RIPA buffer and allowed to incubate for 15 min on ice. Cell debris was removed by centrifugation and the cleared whole cell lysate was transferred to a new tube for further analysis.
For western blot analysis, whole cell extracts were separated on 4-12% SDS-polyacrylamide gels, transferred to nitrocellulose and probed with the indicated primary antibodies. Membranes were subsequently washed and probed with the appropriate horseradish peroxidase (HRP)-conjugated secondary antibody. Membranes were subsequently washed and probed with the appropriate IRDye secondary antibodies (LI-COR). The signal was detected using the Odyssey Imaging System (LI-COR).

H1048 cells = test: Cell viability assay (CellTiter-Glo), H1048 cells; conditions: Homo sapiens, NCI-H1048, 72 h, 3 days; for viability at 1 µM: H1048, 1 μM; for viability at 10 µM: H1048, 10 μM
Protocol: as §4, §5

IL-6 = IL-6 in LPS-induced PBMCs / CD14+ monocytes, Meso Scale assay
Protocol: as §1, with “FIG. 3” for “FIG. 4”, “against IL-6” for “against TNF-alpha”, “protocol. Negative” for “protocol. The negative”
as §2, §3

IL-1β = test: IL-1 beta in LPS-induced PBMCs / CD14+ monocytes, Meso Scale assay
Protocol: FIG. 2 represents the activity against IL-1-beta in CD14 monocytes, plated in 96 well plates and pretreated with Compounds 1, 2, or 3, or pomalidomide, for 1 h and then induced with 100 ng/mL LPS for 18-24 h. Cytokines were measured according to MesoScale protocol. Negative control wells were treated with DMSO. Compound activity was measured as a percentage of LPS-induced activity.
as §2, §3

IL-2 = IL-2 in PBMCs on anti-human CD3 (OKT3) coated plates, Mesoscale analysis; conditions: PBMC, 24 h, relative to DMSO control, read-out: Fold Change IL-2
Protocol: For the IL-2 analysis, 96 well plates were precoated with 1 μg/mL anti-human CD3 antibody (OKT3, eBioscience Inc., San Diego, Calif.). After washing with PBS, compounds were added (50 μL/well) followed by PBMCs diluted at 3-4 million cells/mL (150 μL/well). Plates were incubated for 24 h and the supernatants collected for Mesoscale IL-2 analysis.
as §3

Row | Structure (SMILES) | inhibition at 0.1 µM (TNF-α) [%] | viability at 0.3 µM (Molm-13 cells; Homo sapiens, 72 h, MOLM-13, 0.3 μM, 3 days) [%] | IC50 (Molm-13 cells; Homo sapiens, Molm-13 cells) [nM] | GSPT1 protein level (% of DMSO control) at 0.1 µM (GSPT1) [%] | GSPT1 protein level (% of DMSO control) at 1 µM (GSPT1) [%] | viability at 1 µM (H1048 cells) [%] | viability at 10 µM (H1048 cells) [%] | inhibition at 0.1 µM (IL-6) [%] | inhibition at 0.1 µM (IL-1β) [%] | fold induction at 0.1 µM (IL-2) | viability at 0.6 µM (Molm-13 cells; Homo sapiens, 72 h, MOLM-13, 0.6 μM, 3 days) [%] | effect on cell viability (Molm-13 cells; Molm-13 cells, 1 μM (FIG. 5)) | viability at 10 µM (Molm-13 cells; Homo sapiens, 72 h, 3 days) [%] | inhibition at 1 µM (TNF-α) [%] | inhibition at 1 µM (IL-6) [%] | inhibition at 1 µM (IL-1β) [%] | fold induction at 1 µM (IL-2) | viability at 0.5 µM (Molm-13 cells; Homo sapiens, 72 h, MOLM-13, 0.5 μM, 3 days) [%] | viability at 0.7 µM (Molm-13 cells; Homo sapiens, 72 h, MOLM-13, 0.7 μM, 3 days) [%] | viability at 1 µM (Molm-13 cells; Homo sapiens, 72 h, MOLM-13, 1 μM, 3 days) [%]
1 | Cc1ccc(NC(=O)NCc2ccc3c(c2)CN([C@H]2CCCC(=O)NC2=O)C3=O)cc1Cl [Compound 1] | 75 | 50 | ~450 | 28.6 | 3.63 | 8.39 | 3.51 | 55 | 70 | 1.4 | – | – | – | – | – | – | – | – | – | –
2 | O=C1CCCC(N2Cc3cc(CNC(=O)Nc4cccc(Cl)c4)ccc3C2=O)C(=O)N1 (centres unmarked) [Compound 3] | 59 | – | ~1000 | 95.5 | 46.8 | 47.1 | 6.25 | 27 | 59 | 1.4 | 50 | reduced cell viability | – | – | – | – | – | – | – | –
3 | O=C(Cc1cccc(CN2CCOCC2)c1)NCc1ccc2c(c1)CN([C@H]1CCCC(=O)NC1=O)C2=O [Compound 14, (S)—N-((2-(2,7-dioxoazepan-3-yl)-1-oxoisoindolin-5-yl)methyl)-2-(3-(morpholinomethyl)phenyl)acetamide] | 0 | – | – | 145 | 82.8 | 101 | 56.2 | 0 | 0 | 0.9 | – | – | 28 | – | – | – | – | – | – | –
4 | COc1ccc(CC(=O)NCc2ccc3c(c2)CN([C@H]2CCCC(=O)NC2=O)C3=O)cc1Cl [Compound 13, (S)-2-(3-chloro-4-methoxyphenyl)-N-((2-(2,7-dioxoazepan-3-yl)-1-oxoisoindolin-5-yl)methyl)acetamide] | – | – | – | 95.9 | 46.2 | 97.8 | 44.2 | – | – | – | – | – | 84 | 53 | 85 | 77 | 2.6 | – | – | –
5 | O=C(Cc1ccc(Cl)c(CN2CCOCC2)c1)NCc1ccc2c(c1)CN([C@H]1CCCC(=O)NC1=O)C2=O [Compound 15, (S)-2-(4-chloro-3-(morpholinomethyl)phenyl)-N-((2-(2,7-dioxoazepan-3-yl)-1-oxoisoindolin-5-yl)methyl)acetamide] | 0 | – | – | 167 | 111 | 93.3 | 35 | 0 | 0 | 1 | – | – | 84 | – | – | – | – | – | – | –
6 | Cc1ccc(NC(=O)NCc2ccc3c(c2C)CN([C@H]2CCCC(=O)NC2=O)C3=O)cc1Cl [Compound 16, (S)-1-(3-chloro-4-methylphenyl)-3-((2-(2,7-dioxoazepan-3-yl)-4-methyl-1-oxoisoindolin-5-yl)methyl)urea] | 78 | – | – | 59.4 | 39.3 | 7.66 | 3.93 | 72 | 72 | 1.7 | – | – | – | – | – | – | – | 70 | – | –
7 | O=C1CCC[C@H](N2Cc3cc(CNC(=O)Nc4ccc(F)c(Cl)c4)ccc3C2=O)C(=O)N1 [Compound 6, (S)-1-(3-chloro-4-fluorophenyl)-3-((2-(2,7-dioxoazepan-3-yl)-1-oxoisoindolin-5-yl)methyl) urea] | – | – | – | 113 | 37.9 | 45.7 | 5.42 | – | – | – | – | – | – | 65 | 77 | 64 | 1.3 | – | 50 | –
8 | Cc1ccc(NC(=S)NCc2ccc3c(c2)CN([C@H]2CCCC(=O)NC2=O)C3=O)cc1Cl [Compound 26, (S)-1-(3-chloro-4-methylphenyl)-3-((2-(2,7-dioxoazepan-3-yl)-1-oxoisoindolin-5-yl)methyl)thiourea] | 3 | – | – | 61.6 | 20.8 | 46.4 | 4.54 | 0 | 1 | 0.8 | – | – | – | – | – | – | – | – | – | 79
9 | Cc1ccc(NC(=O)NCCc2ccc3c(c2)CN([C@H]2CCCC(=O)NC2=O)C3=O)cc1Cl [Compound 24, (S)-1-(3-chloro-4-methylphenyl)-3-(2-(2-(2,7-dioxoazepan-3-yl)-1-oxoisoindolin-5-yl)ethyl)urea] | 42 | – | – | 122 | 126 | – | 2.81 | 0 | 26 | 0.9 | – | – | 98 | – | – | – | – | – | – | –
10 | Cc1ccc(CNC(=O)NCc2cccc3c2CN([C@H]2CCCC(=O)NC2=O)C3=O)cc1Cl [Compound 20, (S)-1-(3-chloro-4-methylbenzyl)-3-((2-(2,7-dioxoazepan-3-yl)-1-oxoisoindolin-4-yl)methyl)urea] | 11 | – | – | 126 | 160 | 98.5 | 96.2 | 7 | 12 | 1.1 | – | – | 23 | – | – | – | – | – | – | –
